{"source": "patent US20100146645A1", "about": "“TRANSGENIC ANIMAL MODEL FOR MODELLING PA[…], A METHOD FOR IDENTIFYING COMPOUNDS FOR TREATMENT OF DISEASES OR DISORDERS CAUSED BY PA[…] AND A METHOD FOR USING WFS1 PROTEIN AS A TARGET FOR I[…] COMPOUNDS AGAINST PA[…]” (priority 2006, published 2010)", "key": {"Wfs1 −/− mice [1]": {"test_system": "Wfs1 −/− mice", "assay": "Light-dark cage test, vocalization", "format": "in vivo, mouse", "conditions": "Wfs1 −/− mice (30% vocalized), anxiolytic dose of diazepam injected", "protocol": "The cage was divided into two: a ⅔ part was lighted and a ⅓ part with darkened cover. The light part was divided into three equal parts, so that the most aversive part was the third part, which is located most distantly from the dark part. Anxious animals preferred to remain mostly in the dark part and avoided the aversive light partition. The experiment was performed one week after the elevated plus-maze experiment and no preliminary isolation of the animals was applied. Lighting level in the light part of the cage was 270 lux.\nNamely, the female Wfs1 −/− mice performed 1.5-2 times less entrances to the various parts of the light partition, if compared to the wild type mice (FIG. 7) and the duration of their stay in the light part was twice shorter (FIG. 8). […] In the test cage 30% of the Wfs1 −/− mice vocalized."}, "Wfs1 −/− mice [2]": {"test_system": "Wfs1 −/− mice", "assay": "Elevated plus-maze, effect of diazepam on anxiety behaviour and vocalization", "format": "in vivo, mouse"}}}
{"smiles": "CN1C(=O)CN=C(c2ccccc2)c2cc(Cl)ccc21", "note": "[diazepam]", "values": [{"measurement": "Vocalization in the test cage", "setting": "Wfs1 −/− mice [1]", "result": "completely removed"}, {"measurement": "Suppressed exploratory activity and risk behaviour", "setting": "Wfs1 −/− mice [2]; Wfs1-deficient mice, diazepam 1 mg/kg", "result": "significantly reduced"}, {"measurement": "Stress-induced vocalization", "setting": "Wfs1 −/− mice [2]; Wfs1 −/− mice, diazepam 0.5 mg/kg", "result": "not effective"}, {"measurement": "Stress-induced vocalization", "setting": "Wfs1 −/− mice [2]; Wfs1 −/− mice, diazepam 1 mg/kg", "result": "removed"}, {"measurement": "Vocalization (share of vocalizing mice)", "setting": "Wfs1 −/− mice [2]; Wfs1 −/− mice, diazepam group, physiological saline group 24%", "result": 0, "unit": "%"}, {"measurement": "Time spent on the open arms of the cage", "setting": "Wfs1 −/− mice [2]; female Wfs1 −/− homozygotes, diazepam 1 mg/kg vs physiological saline, FIG. 4", "result": "increased"}, {"measurement": "Number of downwards examinations (head dippings) from the open arms", "setting": "Wfs1 −/− mice [2]; female Wfs1 −/− homozygotes, diazepam 1 mg/kg vs physiological saline, FIG. 5", "result": "increased"}, {"measurement": "Risk avoidance behaviour", "setting": "Wfs1 −/− mice [2]; female Wfs1 −/− homozygotes, diazepam 1 mg/kg vs physiological saline, FIG. 6", "result": "significantly decreased"}]}
